Values quoted from earlier work in PubChem BioAssay AID1259409 (Chemical Carcinogenesis Research Information System (CCRIS), 2018).
Where “and” joins values, the source holds several entries; their conditions need not be identical. Equal values may be shown once.

System: rodent chemically induced tumor inhibition, incidence and multiplicity
Experiment: CCRIS tumor inhibitor studies

Nc1nc(N)nc(-c2cc(Cl)ccc2Cl)n1
tumour outcome (control, treated, inhibition, significance) (Carcinogen: DIETHYLNITROSAMINE, 55-18-5, Dose [Inhibitor]: 0, 125 PPM IN DIET BEGINNING 1 WK POST CARCINOGEN DOSE (STUDY DURATION: 36 WK), Route [Inhibitor]: ORAL, Species: RAT, Strain/Sex: F344/MALE, Target Tissue: Type of Lesion: LIVER: TUMOR, Dose [Carcinogen]: 200 MG/KG BW ONCE, Promoter: PHENOBARBITAL, 50-06-6): 14/14 (100%), 0/15 (0%), 100%, not calculated
tumour outcome (control, treated, inhibition, significance) (Carcinogen: N-METHYL-N'-NITRO-N-NITROSOGUANIDINE, 70-25-7, Dose [Inhibitor]: 0, 100 PPM IN DIET FOR FIRST 25 WK (STUDY DURATION: 55 WK), Route [Inhibitor]: ORAL, Species: RAT, Strain/Sex: WISTAR/MALE, Target Tissue: Type of Lesion: DUODENUM: ADENOMA, ADENOCARCINOMA OR SARCOMA, Dose [Carcinogen]: 100 MG/L IN DRINKING WATER FOR FIRST 25 WK, Promoter: GLYOXAL, 107-22-2): 6/12 (50%), 4/16 (25%), 50%, not significant
tumour outcome (control, treated, inhibition, significance) (Carcinogen: N-METHYL-N'-NITRO-N-NITROSOGUANIDINE, 70-25-7, Dose [Inhibitor]: 0, 100 PPM IN DIET FOR FIRST 25 WK (STUDY DURATION: 55 WK), Route [Inhibitor]: ORAL, Species: RAT, Strain/Sex: WISTAR/MALE, Target Tissue: Type of Lesion: FORESTOMACH: PAPILLOMA, Dose [Carcinogen]: 100 MG/L IN DRINKING WATER FOR FIRST 25 WK, Promoter: GLYOXAL, 107-22-2): 3/12 (25%), 1/16 (6%), 76%, not significant
tumour outcome (control, treated, inhibition, significance) (Carcinogen: N-METHYL-N'-NITRO-N-NITROSOGUANIDINE, 70-25-7, Dose [Inhibitor]: 0, 100 PPM IN DIET FOR FIRST 25 WK (STUDY DURATION: 55 WK), Route [Inhibitor]: ORAL, Species: RAT, Strain/Sex: WISTAR/MALE, Target Tissue: Type of Lesion: GASTROINTESTINAL TRACT (UPPER): BENIGN OR MALIGNANT TUMOR, Dose [Carcinogen]: 100 MG/L IN DRINKING WATER FOR FIRST 25 WK, Promoter: GLYOXAL, 107-22-2): 11/12 (92%), 9/16 (56%), 39%, p<0.05
tumour outcome (control, treated, inhibition, significance) (Carcinogen: N-METHYL-N'-NITRO-N-NITROSOGUANIDINE, 70-25-7, Dose [Inhibitor]: 0, 100 PPM IN DIET FOR FIRST 25 WK (STUDY DURATION: 55 WK), Route [Inhibitor]: ORAL, Species: RAT, Strain/Sex: WISTAR/MALE, Target Tissue: Type of Lesion: GLANDULAR STOMACH: ADENOMA, ADENOCARCINOMA OR SARCOMA, Dose [Carcinogen]: 100 MG/L IN DRINKING WATER FOR FIRST 25 WK, Promoter: GLYOXAL, 107-22-2): 9/12 (75%), 6/16 (38%), 49%, p<0.05
tumour outcome (control, treated, inhibition, significance) (Carcinogen: N-METHYL-N'-NITRO-N-NITROSOUGUANIDINE, 70-25-7, Dose [Inhibitor]: 0, 25 PPM IN DIET FOR THE DURATION OF THE STUDY (STUDY DURATION: 55 WK), Route [Inhibitor]: ORAL, Species: RAT, Strain/Sex: WISTAR/MALE, Target Tissue: Type of Lesion: BILE DUCT: CHOLANGIOMA, Dose [Carcinogen]: 100 MG/L IN DRINKING WATER FOR FIRST 25 WK, Promoter: GLYOXAL, 107-22-2): 1/12 (8%), 0/12 (0%), 100%, not significant
tumour outcome (control, treated, inhibition, significance) (Carcinogen: N-METHYL-N'-NITRO-N-NITROSOUGUANIDINE, 70-25-7, Dose [Inhibitor]: 0, 25 PPM IN DIET FOR THE DURATION OF THE STUDY (STUDY DURATION: 55 WK), Route [Inhibitor]: ORAL, Species: RAT, Strain/Sex: WISTAR/MALE, Target Tissue: Type of Lesion: FORESTOMACH: PAPILLOMA, Dose [Carcinogen]: 100 MG/L IN DRINKING WATER FOR FIRST 25 WK, Promoter: GLYOXAL, 107-22-2): 3/12 (25%), 1/12 (8%), 68%, not significant
tumour outcome (control, treated, inhibition, significance) (Carcinogen: N-METHYL-N'-NITRO-N-NITROSOUGUANIDINE, 70-25-7, Dose [Inhibitor]: 0, 25 PPM IN DIET FOR THE DURATION OF THE STUDY (STUDY DURATION: 55 WK), Route [Inhibitor]: ORAL, Species: RAT, Strain/Sex: WISTAR/MALE, Target Tissue: Type of Lesion: GASTROINTESTINAL TRACT (UPPER): BENIGN OR MALIGNANT TUMOR, Dose [Carcinogen]: 100 MG/L IN DRINKING WATER FOR FIRST 25 WK, Promoter: GLYOXAL, 107-22-2): 11/12 (92%), 7/12 (58%), 37%, not significant
tumour outcome (control, treated, inhibition, significance) (Carcinogen: N-METHYL-N'-NITRO-N-NITROSOUGUANIDINE, 70-25-7, Dose [Inhibitor]: 0, 25 PPM IN DIET FOR THE DURATION OF THE STUDY (STUDY DURATION: 55 WK), Route [Inhibitor]: ORAL, Species: RAT, Strain/Sex: WISTAR/MALE, Target Tissue: Type of Lesion: GLANDULAR STOMACH: ADENOMA, ADENOCARCINOMA OR SARCOMA, Dose [Carcinogen]: 100 MG/L IN DRINKING WATER FOR FIRST 25 WK, Promoter: GLYOXAL, 107-22-2): 9/12 (75%), 5/12 (42%), 44%, not significant
tumour outcome (control, treated, inhibition, significance) (Carcinogen: N-METHYL-N'-NITRO-N-NITROSOUGUANIDINE, 70-25-7, Dose [Inhibitor]: 0, 100 PPM IN DIET FOR FIRST 25 WK (STUDY DURATION: 55 WK), Route [Inhibitor]: ORAL, Species: RAT, Strain/Sex: WISTAR/MALE, Target Tissue: Type of Lesion: BILE DUCT: CHOLANGIOMA, Dose [Carcinogen]: 100 MG/L IN DRINKING WATER FOR FIRST 25 WK, Promoter: GLYOXAL, 107-22-2): 1/12 (8%), 0/12 (0%), 100%, not significant and 1/12 (8%), 0/15 (0%), 100%, not significant
tumour outcome (control, treated, inhibition, significance) (Carcinogen: N-METHYL-N'-NITRO-N-NITROSOUGUANIDINE, 70-25-7, Dose [Inhibitor]: 0, 100 PPM IN DIET FOR FIRST 25 WK (STUDY DURATION: 55 WK), Route [Inhibitor]: ORAL, Species: RAT, Strain/Sex: WISTAR/MALE, Target Tissue: Type of Lesion: DUODENUM: ADENOMA, ADENOCARCINOMA OR SARCOMA, Dose [Carcinogen]: 100 MG/L IN DRINKING WATER FOR FIRST 25 WK, Promoter: GLYOXAL, 107-22-2): 6/12 (50%), 4/12 (33%), 34%, not significant and 6/12 (50%), 4/15 (20%), 60%, not significant
tumour outcome (control, treated, inhibition, significance) (Carcinogen: N-METHYL-N'-NITRO-N-NITROSOUGUANIDINE, 70-25-7, Dose [Inhibitor]: 0, 100 PPM IN DIET FOR FIRST 25 WK (STUDY DURATION: 55 WK), Route [Inhibitor]: ORAL, Species: RAT, Strain/Sex: WISTAR/MALE, Target Tissue: Type of Lesion: FORESTOMACH: PAPILLOMA, Dose [Carcinogen]: 100 MG/L IN DRINKING WATER FOR FIRST 25 WK, Promoter: GLYOXAL, 107-22-2): 3/12 (25%), 3/12 (25%), 0%, not significant and 3/12 (25%), 1/15 (7%), 72%, not significant
tumour outcome (control, treated, inhibition, significance) (Carcinogen: N-METHYL-N'-NITRO-N-NITROSOUGUANIDINE, 70-25-7, Dose [Inhibitor]: 0, 100 PPM IN DIET FOR FIRST 25 WK (STUDY DURATION: 55 WK), Route [Inhibitor]: ORAL, Species: RAT, Strain/Sex: WISTAR/MALE, Target Tissue: Type of Lesion: GASTROINTESTINAL TRACT (UPPER): BENIGN OR MALIGNANT TUMOR, Dose [Carcinogen]: 100 MG/L IN DRINKING WATER FOR FIRST 25 WK, Promoter: GLYOXAL, 107-22-2): 11/12 (92%), 5/12 (42%), 54%, p<0.02 and 11/12 (92%), 6/15 (40%), 57%, p<0.01
tumour outcome (control, treated, inhibition, significance) (Carcinogen: N-METHYL-N'-NITRO-N-NITROSOUGUANIDINE, 70-25-7, Dose [Inhibitor]: 0, 100 PPM IN DIET FOR FIRST 25 WK (STUDY DURATION: 55 WK), Route [Inhibitor]: ORAL, Species: RAT, Strain/Sex: WISTAR/MALE, Target Tissue: Type of Lesion: GLANDULAR STOMACH: ADENOMA, ADENOCARCINOMA OR SARCOMA, Dose [Carcinogen]: 100 MG/L IN DRINKING WATER FOR FIRST 25 WK, Promoter: GLYOXAL, 107-22-2): 9/12 (75%), 3/12 (25%), 67%, p<0.02 and 9/12 (75%), 5/15 (33%), 56%, p<0.02

[K+]
outcome (Carcinogen: N-METHYL-N-NITROSOUREA [684-93-5], Dose [Inhibitor]: 0.05% IN DRINKING WATER, 2 WKS BEFORE CARCINOGEN AND FOR 26 WKS AFTER, Route [Inhibitor]: DRINKING WATER, Species: RAT, Strain/Sex: SPRAGUE-DAWLEY/FEMALE, Target Tissue: Type of Lesion: MAMMARY GLAND: CARCINOMA, Dose [Carcinogen]: 50 MG/KG BW ONCE AT 7 WKS OF AGE (IN SALINE SOLUTION)): 8/11 (73%) vs 10/11 (94%) at 16 wks

c1c[nH]cn1
tumour outcome (control, treated, inhibition, significance) (Carcinogen: N-METHYL-N-NITROSOUREA, 684-93-5, Dose [Inhibitor]: 1000 MG/KG OF LOW (3%) FAT DIET BEGINNING 1 WK POST CARCINOGEN DOSE AND CONTINUING FOR DURATION OF STUDY (STUDY DURATION, Route [Inhibitor]: ORAL, Species: RAT, Strain/Sex: SPRAGUE-DAWLEY/FEMALE, Target Tissue: Type of Lesion: MAMMARY GLAND: TUMOR, Dose [Carcinogen]: 40 MG/KG ONCE, Promoter: NONE USED): 78%, 92%, -18%, not calculated

CCCCCCCCCC
tumour outcome (control, treated, inhibition, significance) (Carcinogen: BENZO[A]PYRENE, 50-32-8, Dose [Inhibitor]: 25 MG IN 0.1 ML ACETONE 3/WK ADMINISTERED SIMULTANEOUSLY WITH CARCINOGEN FOR DU RATION OF STUDY (STUDY DURATION: 440 D), Route [Inhibitor]: DERMAL, Species: MOUSE, Strain/Sex: ICR/FEMALE, Target Tissue: Type of Lesion: SKIN: SQUAMOUS CARCINOMA, Dose [Carcinogen]: 5 UG IN 0.1 ML ACETONE 3/WK FOR DURATION OF STUDY, Promoter: NONE USED): 12/50 (24%), 34/50 (68%), -183%, not calculated
tumour outcome (control, treated, inhibition, significance) (Carcinogen: BENZO[A]PYRENE, 50-32-8, Dose [Inhibitor]: 25 MG IN 0.1 ML ACETONE 3/WK ADMINISTERED SIMULTANEOUSLY WITH CARCINOGEN FOR DURATION OF STUDY (STUDY DURATION: 440 D), Route [Inhibitor]: DERMAL, Species: MOUSE, Strain/Sex: ICR/FEMALE, Target Tissue: Type of Lesion: SKIN: PAPILLOMA, Dose [Carcinogen]: 5 UG IN 0.1 ML ACETONE 3/WK FOR DURATION OF STUDY, Promoter: NONE USED): 16/50 (32%), 38/50 (76%), -138%, not calculated
